Molecules are shown by their SMILES. Where “and” joins values, the source holds several entries; their conditions need not be identical. Equal entries are not always repeated.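 Cultured in 96-well plates, cells were exposed to test compound for 48 hours across five concentrations. The concentration for 50% growth inhibition is given as GI50. The concentration for full growth arrest is given as TGI.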 Some results are limits rather than exact numbers.

Some test systems named below: BT-549 breast; HCC-2998 colon; HOP-92 NSCLC; K-562 leukemia; M14 melanoma; NCI-H226 lung; NCI-H23 lung; NCI-H522 lung; NCI/ADR-RES ovarian; PC-3 prostate; SNB-75 CNS; UACC-257 melanoma.
Holding throughout (experiment): NCI tumour cell line growth inhibition, 48 h

For `CCOc1ccc(NC(=O)/C(=N\NC(C)(C)C)C2C(=O)Nc3ccccc3S2=O)cc1` (stereo not drawn), the TGI in the experiment on BT-549 breast, with HCC-2998 colon, with HOP-92 NSCLC, in the experiment on K-562 leukemia, in the experiment with M14 melanoma and in the experiment with NCI-H226 lung was > 100 µM each time. Also, the TGI in the experiment on NCI-H23 lung, with NCI-H522 lung, in the experiment on NCI/ADR-RES ovarian, with PC-3 prostate, in the experiment with SNB-75 CNS and in the experiment with UACC-257 melanoma was > 100 µM each time.
For `CN(C)Cc1cc(C(C)(C)C)ccc1-c1ccc(C(C)(C)C)cc1CN(C)C`, the TGI with BT-549 breast was > 100 µM; in the experiment on HCC-2998 colon, 23.5 µM; in the experiment on HOP-92 NSCLC, > 100 µM; with K-562 leukemia, > 100 µM; in the experiment on M14 melanoma, > 100 µM; in the experiment with NCI-H226 lung, > 100 µM. In addition, the TGI in the experiment with NCI-H23 lung, in the experiment with NCI-H522 lung, with NCI/ADR-RES ovarian, in the experiment on PC-3 prostate, in the experiment with SNB-75 CNS and in the experiment on UACC-257 melanoma was > 100 µM each time.
As for `O=C(/C=C1\C[C@H]2C=Nc3ccccc3C(=O)N2C1)NCCCCNC(=O)/C=C1\C[C@H]2C=Nc3ccccc3C(=O)N2C1`, the TGI in the experiment with BT-549 breast was 26.1 µM; with HCC-2998 colon, 32.9 µM; in the experiment with HOP-92 NSCLC, 20.4 µM; in the experiment with K-562 leukemia it was > 33.5 µM; with M14 melanoma, 19.5 µM; with NCI-H226 lung it was 59.5 µM. Besides, the TGI in the experiment with NCI-H23 lung was 27 µM; in the experiment on NCI-H522 lung it was 3.57 µM; in the experiment on NCI/ADR-RES ovarian, 47.1 µM; in the experiment with PC-3 prostate, 27.7 µM; in the experiment with SNB-75 CNS, 31.9 µM; in the experiment with UACC-257 melanoma it was 27.1 µM.
In the case of `O=C(C[n+]1ccccc1)N/N=C(\Cc1nc2ccc([N+](=O)[O-])cc2[nH]c1=O)C(=O)Nc1cc(Cl)c(Cl)cc1Cl`, the TGI with BT-549 breast, in the experiment with HCC-2998 colon, with HOP-92 NSCLC, in the experiment with K-562 leukemia, in the experiment on M14 melanoma and in the experiment with NCI-H226 lung was > 100 µM each time. Besides, the TGI with NCI-H23 lung, in the experiment on NCI-H522 lung, in the experiment on NCI/ADR-RES ovarian, in the experiment with PC-3 prostate, in the experiment with SNB-75 CNS and in the experiment on UACC-257 melanoma was > 100 µM throughout.
Regarding `Brc1c(C#CCC(c2ccccc2)(c2ccccc2)c2ccccc2)ccc(C#CCC(c2ccccc2)(c2ccccc2)c2ccccc2)c1Br`, the TGI with BT-549 breast, with HCC-2998 colon, in the experiment on HOP-92 NSCLC, in the experiment with K-562 leukemia, in the experiment on M14 melanoma and with NCI-H226 lung was > 100 µM throughout. Besides, the TGI in the experiment on NCI-H23 lung, in the experiment with NCI-H522 lung, in the experiment with NCI/ADR-RES ovarian, in the experiment with PC-3 prostate, in the experiment with SNB-75 CNS and in the experiment with UACC-257 melanoma was > 100 µM in each case.
Turning to `Cn1c(-c2cccs2)cc(-c2cccs2)c1-c1ccco1`, the TGI is > 100 µM with BT-549 breast; > 100 µM with HCC-2998 colon; > 100 µM in the experiment with HOP-92 NSCLC; > 100 µM in the experiment on K-562 leukemia; > 84.5 µM in the experiment on M14 melanoma; > 100 µM in the experiment with NCI-H226 lung. Further, the TGI is > 25 µM in the experiment with NCI-H23 lung; 88.2 µM with NCI-H522 lung; > 100 µM in the experiment with NCI/ADR-RES ovarian; > 100 µM in the experiment with PC-3 prostate; > 100 µM in the experiment on SNB-75 CNS; > 100 µM with UACC-257 melanoma.
`O=C1CC(=O)NC(=NN2C(=O)/C(=C/c3ccccc3)N=C2c2ccccc2)N1`: the TGI in the experiment with BT-549 breast is 77.1 µM; in the experiment on HCC-2998 colon it was > 100 µM; in the experiment with HOP-92 NSCLC, > 100 µM; in the experiment with K-562 leukemia it was > 100 µM; in the experiment on M14 melanoma, > 100 µM; with NCI-H226 lung, > 100 µM. Besides, the TGI with NCI-H23 lung, in the experiment on NCI-H522 lung, in the experiment with NCI/ADR-RES ovarian, with PC-3 prostate, with SNB-75 CNS and with UACC-257 melanoma was > 100 µM each time.
Take `Cc1cc(-c2nc3ccccc3s2)ccc1N`: the TGI is > 84.3 µM in the experiment on BT-549 breast; > 93 µM in the experiment on HCC-2998 colon; > 100 µM with HOP-92 NSCLC; > 86 µM with K-562 leukemia; > 73.5 µM in the experiment on M14 melanoma; > 92 µM in the experiment with NCI-H226 lung. Also, the TGI in the experiment on NCI-H23 lung is > 80.8 µM; in the experiment on NCI-H522 lung, > 61.6 µM; in the experiment on NCI/ADR-RES ovarian, > 87.6 µM; in the experiment with PC-3 prostate, > 88.8 µM; with SNB-75 CNS, > 88.8 µM; in the experiment on UACC-257 melanoma it was > 100 µM.
Regarding `COC1C(O)C(C)OC(OC2C(Oc3cccc4c(O)c5c(=O)oc6ccc(C)c7c(=O)oc(c34)c5c67)OC(C)C(O)C2O)C1O` (stereo not drawn), the TGI with BT-549 breast was 7.83 µM; in the experiment with HCC-2998 colon it was 4.56 µM and 7.81 µM; in the experiment with K-562 leukemia, 19.3 µM and 8.81 µM; in the experiment on M14 melanoma it was 14.8 µM; in the experiment with NCI-H226 lung, 5.15 µM and 4.17 µM; in the experiment with NCI-H23 lung it was 9.28 µM and 4.6 µM. For the same molecule, the TGI in the experiment on NCI-H522 lung is 2.74 µM and 3.67 µM; with NCI/ADR-RES ovarian, 117 µM; with PC-3 prostate, 17.8 µM; with SNB-75 CNS, 12.6 µM and 7.14 µM; in the experiment with UACC-257 melanoma, 5.85 µM and 5.46 µM. Besides, the GI50 is 1.1 µM in the experiment on HCC-2998 colon; 2.43 µM with HOP-92 NSCLC; 1.66 µM with NCI-H226 lung; 1.93 µM with NCI-H23 lung; 0.747 µM in the experiment with NCI-H522 lung; 26.1 µM with NCI/ADR-RES ovarian. Further, the GI50 in the experiment on SNB-75 CNS is 3.15 µM.
Take `CCOP(=O)(C/C=C/Cn1nc(Br)c(=O)[nH]c1=O)OCC`: the TGI in the experiment with BT-549 breast, in the experiment on HCC-2998 colon, in the experiment on HOP-92 NSCLC, with K-562 leukemia, in the experiment on M14 melanoma and with NCI-H226 lung was > 100 µM throughout. Besides, the TGI in the experiment on NCI-H23 lung, in the experiment on NCI-H522 lung, in the experiment on NCI/ADR-RES ovarian, in the experiment on PC-3 prostate, with SNB-75 CNS and in the experiment with UACC-257 melanoma was > 100 µM throughout.
Take `Cc1oc(N)c(S(=O)(=O)c2ccc(Cl)cc2)c1C`: the TGI in the experiment on BT-549 breast was 60.5 µM; in the experiment on HCC-2998 colon, > 100 µM; in the experiment on HOP-92 NSCLC, > 100 µM; in the experiment with K-562 leukemia, > 100 µM; with M14 melanoma, > 100 µM; with NCI-H226 lung, > 100 µM. Moreover, the TGI with NCI-H23 lung is > 100 µM; with NCI-H522 lung, > 100 µM; with NCI/ADR-RES ovarian it was > 100 µM; in the experiment on PC-3 prostate it was 78 µM; in the experiment on SNB-75 CNS it was > 100 µM; in the experiment with UACC-257 melanoma it was > 100 µM.

Source of the values: PubChem BioAssay (NCI).
